Experimental data: ChEMBL document CHEMBL4251601 (Eur J Med Chem, 2018)

Tests used:
CDK1/Cyclin A = CDK1/Cyclin A (Homo sapiens, UniProt P06493); experiment: Inhibition of CDK1/Cyclin-A2 (unknown origin) using histone-H1 as substrate after 90 mins by ADP-Glo assay; format: protein-complex assay
Homo sapiens = species: Homo sapiens; experiment: Selectivity ratio of IC50 for CDK1/Cyclin-A2 (unknown origin) to IC50 for CDK6/Cyclin-D3 (unknown origin)
CDK6/cyclin D3 = CDK6/cyclin D3 (Homo sapiens, UniProt Q00534); experiment: Inhibition of CDK6/Cyclin-D3 (unknown origin) using histoneH1 as substrate after 90 mins by ADP-Glo assay; format: protein-complex assay
Chain of CDK6/cyclin D3 (P30281 whole entry): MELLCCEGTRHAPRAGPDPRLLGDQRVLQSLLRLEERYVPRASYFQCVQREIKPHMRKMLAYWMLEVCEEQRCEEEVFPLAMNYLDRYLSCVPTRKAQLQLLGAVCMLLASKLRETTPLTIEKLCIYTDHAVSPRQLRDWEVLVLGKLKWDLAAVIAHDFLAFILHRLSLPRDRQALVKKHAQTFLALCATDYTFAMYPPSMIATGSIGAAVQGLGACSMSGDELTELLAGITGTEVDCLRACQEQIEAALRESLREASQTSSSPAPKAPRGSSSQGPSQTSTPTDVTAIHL
Chain of CDK6/cyclin D3 (Q00534 whole entry): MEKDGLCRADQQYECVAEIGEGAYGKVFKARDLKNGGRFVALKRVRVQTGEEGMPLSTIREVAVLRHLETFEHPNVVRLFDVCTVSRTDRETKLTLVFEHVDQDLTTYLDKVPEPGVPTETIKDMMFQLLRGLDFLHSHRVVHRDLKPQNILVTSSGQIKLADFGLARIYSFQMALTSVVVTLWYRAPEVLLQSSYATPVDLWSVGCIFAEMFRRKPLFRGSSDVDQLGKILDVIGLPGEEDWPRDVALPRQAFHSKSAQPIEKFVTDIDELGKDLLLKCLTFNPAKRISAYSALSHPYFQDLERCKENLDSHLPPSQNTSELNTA

[1] = target: Cyclin-dependent kinase 4/cyclin D1 (Homo sapiens, UniProt P11802); experiment: Inhibition of CDK4/Cyclin-D1 (unknown origin) using histone-H1 as substrate after 90 mins by ADP-Glo assay; format: protein-complex assay
Chain of Cyclin-dependent kinase 4/cyclin D1 (P11802 whole entry): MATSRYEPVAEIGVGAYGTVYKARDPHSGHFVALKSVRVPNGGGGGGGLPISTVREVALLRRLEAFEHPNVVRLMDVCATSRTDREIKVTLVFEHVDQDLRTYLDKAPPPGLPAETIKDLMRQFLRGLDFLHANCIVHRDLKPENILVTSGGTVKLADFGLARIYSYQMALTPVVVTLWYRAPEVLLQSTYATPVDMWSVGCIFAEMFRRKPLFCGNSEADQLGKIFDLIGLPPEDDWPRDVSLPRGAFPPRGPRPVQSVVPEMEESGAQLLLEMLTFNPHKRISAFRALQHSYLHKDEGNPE
Chain of Cyclin-dependent kinase 4/cyclin D1 (P24385 whole entry, further chain): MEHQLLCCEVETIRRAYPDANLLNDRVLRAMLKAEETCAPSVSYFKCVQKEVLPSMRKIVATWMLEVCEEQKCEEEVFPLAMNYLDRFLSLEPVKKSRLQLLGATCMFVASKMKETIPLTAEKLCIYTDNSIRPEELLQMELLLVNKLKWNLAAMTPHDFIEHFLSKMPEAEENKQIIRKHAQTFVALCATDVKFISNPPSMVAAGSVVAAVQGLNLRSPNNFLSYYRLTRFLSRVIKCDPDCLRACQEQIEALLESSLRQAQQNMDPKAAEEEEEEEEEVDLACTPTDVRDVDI

[2] = Oral bioavailability in Sprague-Dawley rat at 5 mg/kg administered as single dose by LC-MS/MS analysis; format: ADME, organism-based; details: Sprague-Dawley, in vivo
[3] = AUC (0 to 24 hrs) in Sprague-Dawley rat at 2 mg/kg, iv administered as single dose by LC-MS/MS analysis; format: ADME, organism-based; set-up: dose 2 mg/kg, time < 24 hr, route intravenous; details: in vivo
[4] = AUC (0 to infinity) in Sprague-Dawley rat at 5 mg/kg, po administered as single dose by LC-MS/MS analysis; format: ADME, organism-based; set-up: dose 5 mg/kg, route oral, time infinity; details: Sprague-Dawley, in vivo
[5] = AUC (0 to infinity) in Sprague-Dawley rat at 2 mg/kg, iv administered as single dose by LC-MS/MS analysis; format: ADME, organism-based; set-up: dose 2 mg/kg, route intravenous, time infinity; details: Sprague-Dawley, in vivo
[6] = Half life in Sprague-Dawley rat at 5 mg/kg, po administered as single dose by LC-MS/MS analysis; format: ADME, organism-based; details: in vivo
[7] = Volume of distribution at steady state in Sprague-Dawley rat at 2 mg/kg, iv administered as single dose by LC-MS/MS analysis; format: ADME, organism-based; details: in vivo, read-out: Vdss
[8] = Cmax in Sprague-Dawley rat at 5 mg/kg, po administered as single dose by LC-MS/MS analysis; format: ADME, organism-based; set-up: dose 5 mg/kg, route oral; details: in vivo
[9] = AUC (0 to 24 hrs) in Sprague-Dawley rat at 5 mg/kg, po administered as single dose by LC-MS/MS analysis; format: ADME, organism-based; set-up: time < 24 hr, dose 5 mg/kg, route oral; details: in vivo
[10] = Half life in Sprague-Dawley rat at 2 mg/kg, iv administered as single dose by LC-MS/MS analysis; format: ADME, organism-based; details: in vivo
[11] = Clearance in Sprague-Dawley rat at 2 mg/kg, iv administered as single dose by LC-MS/MS analysis; format: ADME, organism-based; details: in vivo
[12] = Half life in CD-1 mouse liver microsomes at 10 uM preincubated for 5 mins followed by NADP addition by LC-MS/MS analysis; format: ADME, microsome
[13] = Intrinsic clearance in CD-1 mouse liver microsomes at 10 uM preincubated for 5 mins followed by NADP addition by LC-MS/MS analysis; format: ADME, microsome; details: read-out: CLH
[14] = Stability in CD-1 mouse liver microsomes assessed as parent compound remaining at 10 uM preincubated for 5 mins followed by NADP addition measured after 60 mins by LC-MS/MS analysis; format: ADME, microsome; details: read-out: Stability
[15] = Stability in CD-1 mouse liver microsomes assessed as parent compound remaining at 10 uM measured after 60 mins in absence of NADPH-regenerating system by LC-MS/MS analysis; format: ADME, microsome; details: read-out: Stability

Chain of CDK1/Cyclin A (P06493 whole entry): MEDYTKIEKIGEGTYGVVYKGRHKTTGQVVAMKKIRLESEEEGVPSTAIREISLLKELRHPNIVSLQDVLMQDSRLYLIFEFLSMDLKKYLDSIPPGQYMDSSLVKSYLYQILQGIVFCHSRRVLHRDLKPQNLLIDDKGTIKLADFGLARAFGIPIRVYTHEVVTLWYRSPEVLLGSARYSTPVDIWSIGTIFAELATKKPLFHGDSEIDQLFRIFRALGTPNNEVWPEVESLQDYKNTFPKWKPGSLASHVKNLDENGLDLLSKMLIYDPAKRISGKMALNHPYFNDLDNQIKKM
Chain of CDK1/Cyclin A (P20248 whole entry, further chain): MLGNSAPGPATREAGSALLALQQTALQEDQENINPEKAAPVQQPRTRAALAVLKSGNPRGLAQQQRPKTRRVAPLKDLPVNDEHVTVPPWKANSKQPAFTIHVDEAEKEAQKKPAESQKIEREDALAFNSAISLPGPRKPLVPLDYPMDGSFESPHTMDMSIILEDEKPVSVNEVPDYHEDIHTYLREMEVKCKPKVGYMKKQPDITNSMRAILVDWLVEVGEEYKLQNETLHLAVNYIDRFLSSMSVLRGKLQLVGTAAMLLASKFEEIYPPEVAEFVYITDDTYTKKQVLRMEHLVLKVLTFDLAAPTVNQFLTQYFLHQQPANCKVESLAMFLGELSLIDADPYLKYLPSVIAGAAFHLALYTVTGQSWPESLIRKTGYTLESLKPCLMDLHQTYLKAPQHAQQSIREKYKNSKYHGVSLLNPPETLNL

Compound: CCC1(C)C(C)=Nc2c(F)cc(-c3nc(Nc4ccc(C5CCNCC5)cn4)ncc3F)cc21 (stereo unspecified)
- IC50 (CDK1/Cyclin A): 0.11 µM
- Ratio IC50 (Homo sapiens): 18
- IC50 (CDK6/cyclin D3): 0.006 µM

Compound: CC1=Nc2c(F)cc(-c3nc(Nc4ccc(N5CCN(C(C)C)CC5)cn4)ncc3F)cc2C12CCCC2
- IC50 (CDK1/Cyclin A): 1.06 µM
- Ratio IC50 (Homo sapiens): 106
- IC50 [1]: 0.078 µM
- IC50 (CDK6/cyclin D3): 0.01 µM

Compound: CC1=Nc2ccc(-c3nc(Nc4ccc(C5CCNCC5)cn4)ncc3F)cc2C12CCCC2
- Ratio IC50 (Homo sapiens): 7
- IC50 [1]: 0.004 µM
- IC50 (CDK6/cyclin D3): 0.004 µM

Compound: CCC1(C)C(C)=Nc2ccc(-c3nc(Nc4ccc(N5CCNCC5)cn4)ncc3F)cc21 (stereo unspecified)
- IC50 (CDK1/Cyclin A): 0.142 µM
- Ratio IC50 (Homo sapiens): 14
- IC50 [1]: 0.028 µM

Compound: CCN1CCN(Cc2ccc(Nc3ncc(F)c(-c4cc(F)c5c(c4)C(C)(CC)C(C)=N5)n3)nc2)CC1 (stereo unspecified)
- bioavailability [2]: 23%
- IC50 (CDK1/Cyclin A): 0.966 µM
- AUC(0-t) at 24 h [3]: 685 ng·h/mL
- AUC(0-inf) [4]: 412 ng·h/mL
- AUC(0-inf) [5]: 696 ng·h/mL
- Ratio IC50 (Homo sapiens): 37
- half-life [6]: 4.7 h
- Vd [7]: 25.1 L/kg
- IC50 [1]: 0.033 µM
- Cmax [8]: 58.5 ng/mL
- AUC(0-t) at 24 h [9]: 403 ng·h/mL
- half-life [10]: 5.3 h
- IC50 (CDK6/cyclin D3): 0.026 µM
- clearance [11]: 50.7 mL/min/kg

Compound: CC1=Nc2c(F)cc(-c3nc(Nc4ccc(N5CCNCC5)cn4)ncc3F)cc2C1(C)C
- IC50 (CDK1/Cyclin A): 2.22 µM
- Ratio IC50 (Homo sapiens): 52

Compound: CC1=Nc2c(F)cc(-c3nc(Nc4ccc(C5CCN(CCO)CC5)cn4)ncc3F)cc2C12CCCC2
- Ratio IC50 (Homo sapiens): 352
- IC50 (CDK6/cyclin D3): 0.0005 µM

Compound: CC1=Nc2c(F)cc(-c3nc(Nc4ccc(N5CCNCC5)cn4)ncc3F)cc2C12CCCC2
- bioavailability [2]: 28%
- AUC(0-t) at 24 h [3]: 949 ng·h/mL
- half-life at 10 µM [12]: 0.47 h
- microsomal CLint at 10 µM [13]: 49.2 µL/min/mg
- AUC(0-inf) [5]: 1000 ng·h/mL
- Ratio IC50 (Homo sapiens): 25
- Vd [7]: 17.2 L/kg
- remaining at 1 h, 10 µM [14]: 24%
- IC50 [1]: 0.008 µM
- Cmax [8]: 56.6 ng/mL
- remaining at 1 h, 10 µM [15]: 94.4%
- AUC(0-t) at 24 h [9]: 671 ng·h/mL
- half-life [10]: 5.8 h
- IC50 (CDK6/cyclin D3): 0.006 µM
- clearance [11]: 34.7 mL/min/kg

Compound: CC1=Nc2ccc(-c3nc(Nc4ccc(C5CCN(C)CC5)cn4)ncc3F)cc2C12CCCC2
- Ratio IC50 (Homo sapiens): 12
- IC50 [1]: 0.008 µM
- IC50 (CDK6/cyclin D3): 0.004 µM

Compound: CCN1CCC(c2ccc(Nc3ncc(F)c(-c4cc(F)c5c(c4)C4(CCCC4)C(C)=N5)n3)nc2)CC1
- bioavailability [2]: 35%
- AUC(0-t) at 24 h [3]: 2250 ng·h/mL
- AUC(0-inf) [5]: 3190 ng·h/mL
- Ratio IC50 (Homo sapiens): 268
- Vd [7]: 11.6 L/kg
- IC50 [1]: 0.006 µM
- Cmax [8]: 143 ng/mL
- AUC(0-t) at 24 h [9]: 1980 ng·h/mL
- half-life [10]: 13.2 h
- IC50 (CDK6/cyclin D3): 0.004 µM
- clearance [11]: 10.8 mL/min/kg

Compound: CCC1(CC)C(C)=Nc2c(F)cc(-c3nc(Nc4ccc(N5CCN(C)CC5)cn4)ncc3F)cc21
- IC50 (CDK1/Cyclin A): 0.096 µM
- AUC(0-t) at 24 h [3]: 204 ng·h/mL
- AUC(0-inf) [5]: 213 ng·h/mL
- Ratio IC50 (Homo sapiens): 11
- Vd [7]: 17.9 L/kg
- IC50 [1]: 0.01 µM
- half-life [10]: 1.4 h
- clearance [11]: 167 mL/min/kg

Compound: CCN1CCN(c2ccc(Nc3ncc(F)c(-c4cc(F)c5c(c4)C(C)(CC)C(C)=N5)n3)nc2)CC1 (stereo unspecified)
- IC50 (CDK1/Cyclin A): 0.065 µM
- Ratio IC50 (Homo sapiens): 1

Compound: CCN1CCC(c2ccc(Nc3ncc(F)c(-c4cc(F)c5c(c4)C(C)(CC)C(C)=N5)n3)nc2)CC1 (stereo unspecified)
- IC50 (CDK1/Cyclin A): 0.216 µM
- Ratio IC50 (Homo sapiens): 18
- IC50 [1]: 0.016 µM
- IC50 (CDK6/cyclin D3): 0.012 µM

Compound: CCC1(C)C(C)=Nc2c(F)cc(-c3nc(Nc4ccc(N5CCN(C)CC5)cn4)ncc3F)cc21 (stereo unspecified)
- IC50 (CDK1/Cyclin A): 0.153 µM
- AUC(0-t) at 24 h [3]: 496 ng·h/mL
- AUC(0-inf) [5]: 504 ng·h/mL
- Ratio IC50 (Homo sapiens): 153
- Vd [7]: 6.4 L/kg
- IC50 [1]: 0.006 µM
- half-life [10]: 2.1 h
- IC50 (CDK6/cyclin D3): 0.001 µM
- clearance [11]: 69.2 mL/min/kg

Compound: CCN1CCN(c2ccc(Nc3ncc(F)c(-c4ccc5c(c4)C(C)(CC)C(C)=N5)n3)nc2)CC1 (stereo unspecified)
- IC50 (CDK1/Cyclin A): 0.101 µM
- Ratio IC50 (Homo sapiens): 25
- IC50 (CDK6/cyclin D3): 0.004 µM
